In PMC3388080 (PLoS ONE, 2012):

Tests used:
[1] = tested on: male Sprague-Dawley rats; assay: EEG/EMG/Tcore/LMA telemetry sleep study 1 (SB-334867 vs ZOL); format: in vivo, rat
Method: All rodent electroencephalograph (EEG) studies were performed at SRI International. Three groups of eight male Sprague-Dawley rats (300±25 g; Charles River, Wilmington, MA) were implanted with chronic recording devices (F40-EET, Data Sciences Inc., St Paul, MN) for continuous recordings of EEG, electromyograph (EMG), core body temperature (Tcore), and LMA via telemetry as previously described. Data recording and scoring were performed as previously reported (see also Supplemental Material and Methods). The EEG and EMG data were scored in 10 sec epochs for waking (W), rapid eye movement sleep (REM), and non-REM sleep (NR). Tcore and LMA (counts per minute) were analyzed as hourly means. Data from the EEG studies are reported in hourly means such that the hourly time ZT1 refers to the hour between time points ZT0 and ZT1.
For each of the three separate studies, a repeated measures counter-balanced design was employed in which each rat received five separate dosings. […] All dosings were administered ip in a volume of 2 ml/kg. A minimum of 3 d elapsed between doses. Dosing occurred during the middle of the rats’ normal active period at the start of ZT19 and was typically completed within 10 min. Animals were continuously recorded for 6 h prior to dosing and for 18 h following dosing.

[2] = tested on: ML2 (MT3); assay: CEREP radioligand binding
Method: (§1) SB-334867 was evaluated in a selectivity screen performed at CEREP (Paris, France). The screen consisted of binding assays on a panel of 79 target receptors. The specific binding (SB) of a radioligand to each target receptor was defined as the difference between the total binding and the nonspecific binding determined in the presence of a cold competitor in excess. […] Details on the CEREP screen are available from www.cerep.fr.

[3] = molecular target: T1, PACAP (h) (PAC1) (Homo sapiens, UniProt P41586); assay: CEREP radioligand binding; conditions: % of control specific binding
T1 construct: purchased CEREP
Method: as §1

[4] = tested on: sigma (non-selective); assay: CEREP radioligand binding; conditions: % of control specific binding
Method: as §1

[5] = tested on: sst (non-selective); assay: CEREP radioligand binding; conditions: % of control specific binding
Method: as §1

T1 sequence (P41586 21-468): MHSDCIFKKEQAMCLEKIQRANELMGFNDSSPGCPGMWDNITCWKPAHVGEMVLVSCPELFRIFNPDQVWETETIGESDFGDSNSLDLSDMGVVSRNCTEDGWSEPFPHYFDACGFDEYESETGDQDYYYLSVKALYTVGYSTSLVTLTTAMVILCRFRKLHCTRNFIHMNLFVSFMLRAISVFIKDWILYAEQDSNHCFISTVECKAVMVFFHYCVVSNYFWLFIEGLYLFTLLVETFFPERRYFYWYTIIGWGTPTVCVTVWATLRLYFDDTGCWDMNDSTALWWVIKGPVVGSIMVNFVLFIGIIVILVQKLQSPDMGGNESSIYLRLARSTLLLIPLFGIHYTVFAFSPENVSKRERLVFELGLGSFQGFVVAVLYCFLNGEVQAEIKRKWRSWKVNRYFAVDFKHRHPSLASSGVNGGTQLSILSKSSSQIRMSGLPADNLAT

Structure (SMILES): Cc1nc2ccc(NC(=O)Nc3ccnc4cccnc34)cc2o1.Cl [SB-334867, 1-(2-methylbenzoxazol-6-yl)-3-[1], [5]naphthyridin-4-yl-urea hydrochloride]
- W bout duration ([1]; ZT21, 10 mg/kg ip): 2.72 ± 0.50
- NR bout duration ([1]; ZT21, 30 mg/kg ip): 1.27 ± 0.16
- Number of NR bouts ([1]; ZT21, 30 mg/kg ip): 16.75 ± 2.30
- Number of REM bouts ([1]; ZT21, 30 mg/kg ip): 5.63 ± 1.10
- Number of W bouts ([1]; ZT21, 30 mg/kg ip): 13.00 ± 1.90
- REM bout duration ([1]; ZT21, 30 mg/kg ip): 1.04 ± 0.11
- W bout duration ([1]; ZT21, 30 mg/kg ip): 2.98 ± 0.68
- NR bout duration (in words) ([1]; ZT21 at 30 mg/kg and ZT24 at 3 mg/kg): increased NR bout duration
- NR bout duration ([1]; ZT22, 3 mg/kg ip): 0.82 ± 0.13
- Number of NR bouts ([1]; ZT22, 3 mg/kg ip): 12.75 ± 2.22
- Number of REM bouts ([1]; ZT22, 3 mg/kg ip): 2.75 ± 1.10
- Number of W bouts ([1]; ZT22, 3 mg/kg ip): 13.38 ± 2.85
- REM bout duration ([1]; ZT22, 3 mg/kg ip): 1.10 ± 0.27
- W bout duration ([1]; ZT22, 3 mg/kg ip): 6.85 ± 3.36
- NR bout duration ([1]; ZT22, 10 mg/kg ip): 0.86 ± 0.10
- Number of NR bouts ([1]; ZT22, 10 mg/kg ip): 17.13 ± 2.47
- Number of REM bouts ([1]; ZT22, 10 mg/kg ip): 3.13 ± 0.67
- Number of W bouts ([1]; ZT22, 10 mg/kg ip): 14.13 ± 1.81
- REM bout duration ([1]; ZT22, 10 mg/kg ip): 1.16 ± 0.25
- W bout duration ([1]; ZT22, 10 mg/kg ip): 3.15 ± 0.53
- NR bout duration ([1]; ZT22, 30 mg/kg ip): 1.19 ± 0.23
- Number of NR bouts ([1]; ZT22, 30 mg/kg ip): 13.13 ± 2.17
- Number of REM bouts ([1]; ZT22, 30 mg/kg ip): 3.38 ± 1.03
- Number of W bouts ([1]; ZT22, 30 mg/kg ip): 16.00 ± 2.00
- REM bout duration ([1]; ZT22, 30 mg/kg ip): 1.25 ± 0.22
- W bout duration ([1]; ZT22, 30 mg/kg ip): 2.75 ± 0.54
- NR bout duration ([1]; ZT23, 3 mg/kg ip): 0.77 ± 0.08
- Number of NR bouts ([1]; ZT23, 3 mg/kg ip): 10.50 ± 2.01
- Number of REM bouts ([1]; ZT23, 3 mg/kg ip): 1.00 ± 0.42
- Number of W bouts ([1]; ZT23, 3 mg/kg ip): 9.00 ± 1.66
- REM bout duration ([1]; ZT23, 3 mg/kg ip): 0.63 ± 0.29
- W bout duration ([1]; ZT23, 3 mg/kg ip): 6.72 ± 1.58
- NR bout duration ([1]; ZT23, 10 mg/kg ip): 0.77 ± 0.13
- Number of NR bouts ([1]; ZT23, 10 mg/kg ip): 9.88 ± 1.88
- Number of REM bouts ([1]; ZT23, 10 mg/kg ip): 1.50 ± 0.63
- Number of W bouts ([1]; ZT23, 10 mg/kg ip): 8.88 ± 1.59
- REM bout duration ([1]; ZT23, 10 mg/kg ip): 1.12 ± 0.34
- W bout duration ([1]; ZT23, 10 mg/kg ip): 11.56 ± 6.94
- NR bout duration ([1]; ZT23, 30 mg/kg ip): 0.80 ± 0.14
- Number of NR bouts ([1]; ZT23, 30 mg/kg ip): 8.88 ± 2.17
- Number of REM bouts ([1]; ZT23, 30 mg/kg ip): 2.75 ± 1.08
- Number of W bouts ([1]; ZT23, 30 mg/kg ip): 8.38 ± 2.00
- REM bout duration ([1]; ZT23, 30 mg/kg ip): 0.75 ± 0.17
- W bout duration ([1]; ZT23, 30 mg/kg ip): 12.52 ± 6.85
- NR bout duration ([1]; ZT24, 3 mg/kg ip): 1.40 ± 0.24
- Number of NR bouts ([1]; ZT24, 3 mg/kg ip): 7.63 ± 2.02
- Number of REM bouts ([1]; ZT24, 3 mg/kg ip): 1.00 ± 0.42
- Number of W bouts ([1]; ZT24, 3 mg/kg ip): 7.00 ± 1.60
- REM bout duration ([1]; ZT24, 3 mg/kg ip): 1.13 ± 0.39
- W bout duration ([1]; ZT24, 3 mg/kg ip): 14.70 ± 7.18
- NR bout duration ([1]; ZT24, 10 mg/kg ip): 0.99 ± 0.18
- Number of NR bouts ([1]; ZT24, 10 mg/kg ip): 5.38 ± 1.45
- Number of REM bouts ([1]; ZT24, 10 mg/kg ip): 0.63 ± 0.26
- Number of W bouts ([1]; ZT24, 10 mg/kg ip): 5.25 ± 1.22
- REM bout duration ([1]; ZT24, 10 mg/kg ip): 0.48 ± 0.16^+
- W bout duration ([1]; ZT24, 10 mg/kg ip): 16.01 ± 6.44
- NR bout duration ([1]; ZT24, 30 mg/kg ip): 1.05 ± 0.12
- Number of NR bouts ([1]; ZT24, 30 mg/kg ip): 10.88 ± 1.90
- Number of REM bouts ([1]; ZT24, 30 mg/kg ip): 2.13 ± 0.55
- Number of W bouts ([1]; ZT24, 30 mg/kg ip): 8.63 ±1.29
- REM bout duration ([1]; ZT24, 30 mg/kg ip): 0.81 ± 0.12
- W bout duration ([1]; ZT24, 30 mg/kg ip): 5.39 ± 6.44
- Tcore (in words) ([1]; high concentration tested, across 6 h): decreased Tcore
- displacement of specific binding ([2]; 10 µM, MT3 (melatonin)): 102%
- % Control (10 µM) Mean SB ([2]; % of control specific binding): -1.6%
- % Control (10 µM) Mean SB [3]: 107.7%
- % Control (10 µM) Mean SB [4]: 98.6%
- % Control (10 µM) Mean SB [5]: 88.9%
